Test results published in US9359372B2, “Hexahydrodibenzo[a,g]quinolizine compound, preparation method thereof, pharmaceutical composition and use thereof” (SHANGHAI INSTITUTE OF MATERIA MEDICA, CHINESE ACADEMY OF …, priority 2011, dated 2016).
Several values for one entry are separate records, joined by “and”; a condition that tells them apart may be missing. Identical values can stand only once.

Key:
dopamine D1 receptor = dopamine D1 receptor (Macaca mulatta (Rhesus macaque), UniProt O77680); experiment: Affinity on dopamine D1 receptor, competition with [3H] SCH23390; assay type: binding; design: D1 receptor inhibition ratio (%): concentration or dose not given beside the values
Method: (§1) (1). Determination of the Affinity of Hexahydrodibenzo[a,g]Quinolizine Compound of General Formula I and Derivatives Thereof on Dopamine D1, Dopamine D2, 5-HT1A, and 5-HT2A Receptor.
(§2) 1) The Experimental Method
(§3) Different concentrations (10^−5 M-10^−11 M) of the compound of the invention and corresponding isotope receptor ligand as well as receptor protein were loaded into the reaction tube and incubated in 30° C. water bath for 60 minutes. The reaction was terminated in a refrigerator. The reaction mixture was put in a Millipore filter (millipore) cell sample collector, filtered through suction filtration using GF/C glass fiber filter paper, and dried. The resulting sample was placed into 0.5 mL tube. 500 μL liquid scintillation fluid was added and intensity of radioactivity was determined by counting.
(§4) (1) Construction of receptor and materials for cell culture: Escherichia coli. DH5α strain; insect virus transfer vector pVL1393 plasmid; BaculoGold linear Chinese baculovirus DNA, purchased from ParMingen company; mkD1RcDNA; rD2R cDNA; various restriction endonucleases, TaqDNA polymerase, T4 ligase, etc., LB medium; insect cell culture TNM-FH.
(§5) (2) the Experimental Materials for Receptor Binding
(§6) Firstly, the above […] are dissolved in DMSO and then diluted with double distilled water to the appropriate concentration (10^−5 M-10^−11 M).
(§7) (+) Butaclamo purchased from RBI company, GF/C glass fiber filter paper purchased from Whatman Co., scintillation fluid (dopamine D1, D2 receptors)/liposoluble scintillation fluid (5-HT1A, 5-HT2A receptor), Beckman LS-6500 multi-function liquid scintillation counter.

D2 dopamine receptor = D2 dopamine receptor (Rattus norvegicus (Rat), UniProt P61169); experiment: Affinity on dopamine D2 receptor, competition with [3H] Spiperone; assay type: binding; design: D2 receptor inhibition ratio (%): concentration or dose not given beside the values
Method: as §1, §2, §3, §4, §5, §6, §7

[1] = In vivo pharmacokinetic experiment of rats (gavage and intravenous); design: species or system SD rats; conditions: rat
Method: Pharmacokinetic properties of Compound DC037029 in rats were preliminarily studied in this experiment. After the tested compound was delivered to rats by intravenous administration and intragastric administration, respectively, the whole blood samples were collected at different time point and the plasma was separated. The concentration of compound in plasma was determined by liquid chromatography-tandem mass spectrometry.
Six healthy male SD rats with the weight of 200-220 g were randomly divided into 2 groups, each of which has three rats. The rats in each group were administrated with the tested compound by gavage or intravenous injection, respectively.
The compound was dissolved in 10% DMSO/10% Tween/[…].
The rats are fasted for 12 h and can drink water ad libitum before test. 2 h after dosing, the rats ate all together. The time point for collecting blood samples and the sample processing are listed as follows.
Intragastric administration time: 0.25, 0.5, 1.0, 2.0, 3.0, 5.0, 7.0, 9.0 and 24 h after administration.
Intravenous administration time: 5 min, 0.25, 0.5, 1.0, 2.0, 3.0, 5.0, 7.0, 9.0 and 24 h after administration. At above time point, 0.3 ml venous blood was taken from retrobulbar venous plexus of the rat and loaded into heparinization tube. After centrifuged at 1000 rpm for 5 min, the plasma was separated and frozen at −20° C. in a refrigerator.

[2] = gavage 20 mg/kg, individual animals
[3] = intravenous injection 10 mg/kg, average
[4] = intravenous injection 10 mg/kg, individual animals

dopamine D1 receptor, sequence (O77680 whole entry): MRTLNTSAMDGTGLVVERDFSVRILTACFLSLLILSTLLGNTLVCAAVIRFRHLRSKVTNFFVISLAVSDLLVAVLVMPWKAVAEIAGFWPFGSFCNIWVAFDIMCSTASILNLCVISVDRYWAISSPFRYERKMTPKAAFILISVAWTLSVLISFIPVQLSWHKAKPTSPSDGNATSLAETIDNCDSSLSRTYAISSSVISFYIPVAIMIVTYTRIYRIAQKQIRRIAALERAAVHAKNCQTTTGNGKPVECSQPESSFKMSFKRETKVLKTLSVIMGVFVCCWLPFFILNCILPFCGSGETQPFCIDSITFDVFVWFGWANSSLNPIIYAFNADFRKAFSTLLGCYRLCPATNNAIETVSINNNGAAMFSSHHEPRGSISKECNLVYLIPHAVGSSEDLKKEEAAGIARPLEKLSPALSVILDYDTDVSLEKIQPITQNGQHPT
D2 dopamine receptor, sequence (P61169 whole entry): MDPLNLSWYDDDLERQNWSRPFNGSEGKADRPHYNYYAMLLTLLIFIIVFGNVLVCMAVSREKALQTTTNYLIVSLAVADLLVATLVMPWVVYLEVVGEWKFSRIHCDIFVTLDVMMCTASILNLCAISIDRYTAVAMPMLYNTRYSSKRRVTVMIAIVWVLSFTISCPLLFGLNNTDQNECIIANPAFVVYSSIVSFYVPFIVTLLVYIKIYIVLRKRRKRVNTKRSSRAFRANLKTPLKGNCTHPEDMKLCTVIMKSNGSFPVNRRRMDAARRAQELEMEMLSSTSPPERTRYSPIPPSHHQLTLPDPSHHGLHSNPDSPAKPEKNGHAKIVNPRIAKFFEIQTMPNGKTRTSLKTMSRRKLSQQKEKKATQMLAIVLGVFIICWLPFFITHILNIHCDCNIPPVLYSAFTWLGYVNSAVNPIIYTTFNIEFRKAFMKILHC

Structure (SMILES): COc1cc2c(cc1OC)CN1CCc3cc(OC)c(OC)cc3C1C2 (racemic) [DC037001, (±)-2,3,10,11-tetramethoxy-5,8,13,13a-tetrahydro-6H-dibenzo[a,g]quinolizine]
- D1 receptor inhibition ratio (%) (dopamine D1 receptor): 58.95%
- D2 receptor inhibition ratio (%) (D2 dopamine receptor): 14.7%

Structure (SMILES): COc1cc2c(cc1OC)C1Cc3cc(OC)c(OC)c(OC)c3CN1CC2 (racemic) [DC037002, (±)-2,3,9,10,11-pentamethoxyl-5,8,13,13a-tetrahydro-6H-dibenzo[a,g]quinolizine]
- D1 receptor inhibition ratio (%) (dopamine D1 receptor): 77.95%
- D2 receptor inhibition ratio (%) (D2 dopamine receptor): 27.05%

Structure (SMILES): COc1ccc2c(c1)CCN1Cc3c(cc(OC)c(OC)c3OC)CC21 (racemic) [DC037007, (±)-3,9,10,11-tetramethoxy-5,8,13,13a-tetrahydro-6H-dibenzo[a,g]quinolizine]
- D1 receptor inhibition ratio (%) (dopamine D1 receptor): 87.65%
- IC50 (dopamine D1 receptor): 2030 nM
- Ki (dopamine D1 receptor): 1000 nM
- D2 receptor inhibition ratio (%) (D2 dopamine receptor): 49.05%

Structure (SMILES): COc1ccc2c(c1)CCN1Cc3cc(OC)c(OC)cc3CC21 (racemic) [DC037009, (±)-3,10,11-trimethoxy-5,8,13,13a-tetrahydro-6H-dibenzo[a,g]quinolizine]
- D1 receptor inhibition ratio (%) (dopamine D1 receptor): −13.6%
- D2 receptor inhibition ratio (%) (D2 dopamine receptor): 0.35%

Structure (SMILES): COc1cc2c(cc1OC)C1Cc3cc4c(cc3CN1CC2)OCO4 (racemic) [DC037014, (±)-2,3-bimethoxy-10,11-methylenedioxy-5,8,13,13a-tetrahydro-6H-dibenzo[a,g]quinolizine]
- D1 receptor inhibition ratio (%) (dopamine D1 receptor): 58.2%
- D2 receptor inhibition ratio (%) (D2 dopamine receptor): 25.8%

Structure (SMILES): COc1cc2c(cc1OC)CN1CCc3cc4c(cc3C1C2)OCO4 (racemic) [DC037021, (±)-2,3-methylenedioxy-10,11-bimethoxy-5,8,13,13a-tetrahydro-6H-dibenzo[a,g]quinolizine]
- D1 receptor inhibition ratio (%) (dopamine D1 receptor): 56.5%
- D2 receptor inhibition ratio (%) (D2 dopamine receptor): 44.5%

Structure (SMILES): COc1cc2c(cc1OC)C1Cc3cc(O)c(O)cc3CN1CC2 (racemic) [DC037022, (±)-2,3-bimethoxy-10,11-bihydroxy-5,8,13,13a-tetrahydro-6H-dibenzo[a,g]quinolizine]
- D1 receptor inhibition ratio (%) (dopamine D1 receptor): 89.0%
- IC50 (dopamine D1 receptor): 1010 nM
- Ki (dopamine D1 receptor): 498 nM
- D2 receptor inhibition ratio (%) (D2 dopamine receptor): 10.6%

Structure (SMILES): COc1cc2c(cc1OC)[C@@H]1Cc3cc(OC)c(OC)c(OC)c3CN1CC2 [DC037006, S-(−)-2,3,9,10,11-pentamethoxyl-5,8,13,13a-tetrahydro-6H-dibenzo[a,g]quinolizine]
- D1 receptor inhibition ratio (%) (dopamine D1 receptor): 91.75%
- IC50 (dopamine D1 receptor): 648 nM
- Ki (dopamine D1 receptor): 320 nM
- D2 receptor inhibition ratio (%) (D2 dopamine receptor): 48.0%

Structure (SMILES): COc1ccc(OC)c2c1C[C@H]1c3cc4c(cc3CCN1C2)OCO4 [DC037013, S-(−)-2,3-methylenedioxy-9,12-bimethoxy-5,8,13,13a-tetrahydro-6H-dibenzo[a,g]quinolizine]
- IC50 (dopamine D1 receptor): 47.9 nM
- Ki (dopamine D1 receptor): 23.6 nM

Structure (SMILES): COc1cc2c(cc1O)[C@@H]1Cc3cc4c(cc3CN1CC2)OCO4 [DC037029, S-(−)-2-hydroxy-3-methoxy-10,12-methylenedioxy-5,8,13,13a-tetrahydro-6H-dibenzo[a,g]quinolizine]
- IC50 (dopamine D1 receptor): 8.19 nM
- Ki (dopamine D1 receptor): 4.2 nM
- affinity on dopamine D1 receptor (in words) (dopamine D1 receptor; summary of the tables): strong affinity
- F (absolute bioavailability) ([1]; gavage 20 mg/kg): 34.2%
- Plasma concentration ([1]; gavage 20 mg/kg, 0.25 h, average): 392 ng/mL
- Plasma concentration ([1]; gavage 20 mg/kg, 0.25 h, individual animals): 268 ng/mL and 416 ng/mL and 493 ng/mL
- Plasma concentration ([1]; gavage 20 mg/kg, 0.5 h, average): 445 ng/mL
- Plasma concentration ([1]; gavage 20 mg/kg, 0.5 h, individual animals): 289 ng/mL and 494 ng/mL and 553 ng/mL
- Plasma concentration ([1]; gavage 20 mg/kg, 1.0 h, average): 420 ng/mL
- Plasma concentration ([1]; gavage 20 mg/kg, 1.0 h, individual animals): 230 ng/mL and 455 ng/mL and 575 ng/mL
- Plasma concentration ([1]; gavage 20 mg/kg, 2.0 h, average): 345 ng/mL
- Plasma concentration ([1]; gavage 20 mg/kg, 2.0 h, individual animals): 218 ng/mL and 326 ng/mL and 492 ng/mL
- Plasma concentration ([1]; gavage 20 mg/kg, 3.0 h, average): 289 ng/mL
- Plasma concentration ([1]; gavage 20 mg/kg, 3.0 h, individual animals): 231 ng/mL and 207 ng/mL and 431 ng/mL
- Plasma concentration ([1]; gavage 20 mg/kg, 5.0 h, average): 266 ng/mL
- Plasma concentration ([1]; gavage 20 mg/kg, 5.0 h, individual animals): 233 ng/mL and 236 ng/mL and 330 ng/mL
- Plasma concentration ([1]; gavage 20 mg/kg, 7.0 h, average): 122 ng/mL
- Plasma concentration ([1]; gavage 20 mg/kg, 7.0 h, individual animals): 169 ng/mL and 80.3 ng/mL and 118 ng/mL
- Plasma concentration ([1]; gavage 20 mg/kg, 9.0 h, average): 82.2 ng/mL
- Plasma concentration ([1]; gavage 20 mg/kg, 9.0 h, individual animals): 91.9 ng/mL and 41.3 ng/mL and 113 ng/mL
- Plasma concentration ([1]; gavage 20 mg/kg, 24.0 h, average): 4.28 ng/mL
- Plasma concentration ([1]; gavage 20 mg/kg, 24.0 h, individual animals): 9.67 ng/mL and 1.26 ng/mL and 1.90 ng/mL
- AUC0-t ([1]; gavage 20 mg/kg, average): 2867 ± 798 ng·h/mL and 2867 ng·h/mL
- AUC0-∞ ([1]; gavage 20 mg/kg, average): 2891 ng·h/mL
- Cmax ([1]; gavage 20 mg/kg, average): 453 ± 147 ng/mL and 453 ng/mL
- MRT ([1]; gavage 20 mg/kg, average): 5.04 h
- Tmax ([1]; gavage 20 mg/kg, average): 0.67 ± 0.29 h and 0.67 h
- t1/2 ([1]; gavage 20 mg/kg, average): 3.26 ± 0.82 h and 3.26 h
- AUC0-t [1, 2]: 3771 ng·h/mL and 2570 ng·h/mL and 2260 ng·h/mL
- AUC0-∞ [1, 2]: 3779 ng·h/mL and 2629 ng·h/mL and 2265 ng·h/mL
- Cmax [1, 2]: 575 ng/mL and 289 ng/mL and 494 ng/mL
- MRT [1, 2]: 4.67 h and 6.45 h and 4.00 h
- Tmax [1, 2]: 1.00 h and 0.50 h (2×)
- t1/2 [1, 2]: 2.70 h and 4.20 h and 2.89 h
- Plasma concentration ([1]; intravenous injection 10 mg/kg, 0.083 h, average): 4194 ng/mL
- Plasma concentration ([1]; intravenous injection 10 mg/kg, 0.083 h, individual animals): 4576 ng/mL and 4169 ng/mL and 3837 ng/mL
- Plasma concentration ([1]; intravenous injection 10 mg/kg, 0.25 h, average): 2883 ng/mL
- Plasma concentration ([1]; intravenous injection 10 mg/kg, 0.25 h, individual animals): 3010 ng/mL and 2766 ng/mL and 2874 ng/mL
- Plasma concentration ([1]; intravenous injection 10 mg/kg, 0.5 h, average): 1942 ng/mL
- Plasma concentration ([1]; intravenous injection 10 mg/kg, 0.5 h, individual animals): 2055 ng/mL and 1788 ng/mL and 1984 ng/mL
- Plasma concentration ([1]; intravenous injection 10 mg/kg, 1.0 h, average): 1207 ng/mL
- Plasma concentration ([1]; intravenous injection 10 mg/kg, 1.0 h, individual animals): 1211 ng/mL and 1047 ng/mL and 1365 ng/mL
- Plasma concentration ([1]; intravenous injection 10 mg/kg, 2.0 h, average): 571 ng/mL
- Plasma concentration ([1]; intravenous injection 10 mg/kg, 2.0 h, individual animals): 590 ng/mL and 527 ng/mL and 596 ng/mL
- Plasma concentration ([1]; intravenous injection 10 mg/kg, 3.0 h, average): 255 ng/mL
- Plasma concentration ([1]; intravenous injection 10 mg/kg, 3.0 h, individual animals): 228 ng/mL and 294 ng/mL and 243 ng/mL
- Plasma concentration ([1]; intravenous injection 10 mg/kg, 5.0 h, average): 75.3 ng/mL
- Plasma concentration ([1]; intravenous injection 10 mg/kg, 5.0 h, individual animals): 65.0 ng/mL and 83.7 ng/mL and 77.2 ng/mL
- Plasma concentration ([1]; intravenous injection 10 mg/kg, 7.0 h, average): 20.7 ng/mL
- Plasma concentration ([1]; intravenous injection 10 mg/kg, 7.0 h, individual animals): 19.2 ng/mL and 21.1 ng/mL and 21.7 ng/mL
- Plasma concentration ([1]; intravenous injection 10 mg/kg, 9.0 h, average): 8.00 ng/mL
- Plasma concentration ([1]; intravenous injection 10 mg/kg, 9.0 h, individual animals): 7.31 ng/mL and 9.26 ng/mL and 7.41 ng/mL
- Plasma concentration ([1]; intravenous injection 10 mg/kg, 24.0 h, average): 1.76 ng/mL
- Plasma concentration ([1]; intravenous injection 10 mg/kg, 24.0 h, individual animals): 2.26 ng/mL and 1.61 ng/mL and 1.41 ng/mL
- AUC0-t [1, 3]: 4196 ± 141 ng·h/mL and 4196 ng·h/mL
- AUC0-∞ [1, 3]: 4210 ng·h/mL
- CLz (plasma clearance rate CL) [1, 3]: 39.7 ± 1.3 mL/min/kg and 39.7 mL/min/kg
- MRT [1, 3]: 1.47 h
- Vss (steady state distribution volume) [1, 3]: 3.49 ± 0.24 L/kg and 3.49 L/kg
- t1/2 [1, 3]: 5.44 ± 0.85 h and 5.44 h
- AUC0-t [1, 4]: 4262 ng·h/mL and 4292 ng·h/mL and 4034 ng·h/mL
- AUC0-∞ [1, 4]: 4272 ng·h/mL and 4313 ng·h/mL and 4046 ng·h/mL
- CLz [1, 4]: 39 mL/min/kg and 38.7 mL/min/kg and 41.2 mL/min/kg
- MRT [1, 4]: 1.42 h and 1.46 h and 1.53 h
- Vss [1, 4]: 3.33 L/kg and 3.38 L/kg and 3.78 L/kg
- t1/2 [1, 4]: 4.88 h and 6.42 h and 5.01 h
